From patent US7786124B2, “Heterocyclic substituted pyridine compounds with CXCR3 antagonist activity” (Schering Corporation, priority 2006, dated 2010) come the findings set out here.

In the experiment the target is T1, human CXCR3 (N-delta 4) (Homo sapiens, UniProt P49682).
T1 construct: CD8 leader; Flag tag; expressed in transfected cells; membrane preparation
T1 sequence (P49682 5-368 limits assumed): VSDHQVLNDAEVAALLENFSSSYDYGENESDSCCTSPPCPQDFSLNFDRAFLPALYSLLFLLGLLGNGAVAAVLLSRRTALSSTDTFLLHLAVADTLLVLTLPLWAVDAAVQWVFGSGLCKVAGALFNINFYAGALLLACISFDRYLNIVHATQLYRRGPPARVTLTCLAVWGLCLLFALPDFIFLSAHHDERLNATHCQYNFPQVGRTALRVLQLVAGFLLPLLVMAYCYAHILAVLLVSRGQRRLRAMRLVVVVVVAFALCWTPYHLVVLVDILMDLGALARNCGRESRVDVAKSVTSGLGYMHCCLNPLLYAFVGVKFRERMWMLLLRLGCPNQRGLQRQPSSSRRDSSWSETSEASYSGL
Put plainly: Human CXCR3 (N-delta 4) scintillation proximity binding assay ([125I] IP-10 displacement). An excerpt:
The inventive compounds can readily be evaluated to determine activity at The CXCR3 receptors by known methods, such as, for example, Development of Human CXCR3 (N-delta 4) Binding Assay.
Cloning and Expression of Human CXCR3 (N-Delta 4):
The DNA encoding human CXCR3 was cloned by PCR using human genomic DNA (Promega, Madison, Wis.) as a template. The PCR primers were designed based on the published sequence of human orphan receptor GPR9 (1) with incorporated restriction sites, a Kozak consensus sequence, CD8 leader and Flag tag. The PCR product was subcloned into the mammalian expression vector pME18Sneo, a derivative of the SR-alpha expression vector (designated as pME18Sneo-hCXCR3 (N-delta 4).
IL-3-dependent mouse pro-B cells Ba/F3 were transfected by electroporation in 0.4 ml Dulbecco's PBS containing 4×10^6 cells with 20 μg of pME18Sneo-hCXCR3 (N-delta 4) plasmid DNA. Cells were pulsed at 400 Volts, 100 OHMs, 960 μFd. The transfected cells were under selection with 1 mg/ml G418 (Life Technologies, Gaithersburg, Md.). G418-resistant Ba/F3 clones were screened for CXCR3 expression by specific binding of [^125I] IP-10 (NEN Life Science Products, Boston, Mass.).
Preparation of Ba/F3-hCXCR3 (N-Delta 4) Membranes
Ba/F3 cells expressing human CXCR3 (N-delta 4) were pelleted and resuspended in the lysis buffer containing 10 mM HEPES, pH 7.5 and Complete® protease inhibitors (1 tablet per 100 ml) (Boehringer Mannheim, Indianapolis, Ind.) at a cell density of 20×10^6 cells per ml. After 5 minutes incubation on ice, cells were transferred to 4639 cell disruption bomb (Parr Instrument, Moline, Ill.) and applied with 1,500 psi of nitrogen for 30 minutes on ice. Large cellular debris was removed by centrifugation at 1,000×g. Cell membrane in the supernatant was sedimented at 100,000×g. The membrane was resuspended in the lysis buffer supplemented with 10% sucrose and stored at −80° C. Total protein concentration of the membrane was determined by BCA method from Pierce (Rockford, Ill.).
Human CXCR3 (N-Delta 4) Scintillation Proximity Assay (SPA)
For each assay point, 2 μg of membrane was preincubated for 1 hr with 300 μg wheat germ agglutinin (WGA) coated SPA beads (Amersham, Arlington Heights, Ill.) in the binding buffer (50 mM HEPES, 1 mM CaCl2, 5 mM MgCl2, 125 mM NaCl, 0.002% NaN3, 1.0% BSA) at room temperature. The beads were spun down, washed once, resuspended in the binding buffer and transferred to a 96-well Isoplate (Wallac, Gaithersburg, Md.). 25 pM of [^125I] IP-10 with tested compounds in a series of titration were added to start the reaction. After 3 hr reaction at room temperature, the amount of [^125I]; IP-10 bound to the SPA beads was determined with a Wallac 1450 Microbeta counter.
A general note: Scintillation proximity formats need no separation of bound from free tracer.

[1] abbreviates: human CXCR3, Table 1, read-out: Ki rating.
Where [2] appears, read: Human CXCR3, Table 2, read-out: Ki.

Where two headings read alike, the source gives them in different places. Some results are limits rather than exact numbers.

As a reminder, the Ki is a dissociation constant, usually derived from enzyme kinetics or from competition with a known ligand. `CCNc1nnc(-c2ccc(N3CCN(C4CCN(Cc5ccc(Cl)cc5)CC4)[C@@H](CC)C3)c(C)n2)o1` [Compound 1]: the inhibitory constant (Ki) reads like this: under setting [1], below 25 nM; (human CXCR3, read-out: Ki) 0.2 nM.

In the case of `CCNc1nnc(-c2ccc(N3CCN(C4CCN(C(=O)c5ccc(F)c(F)c5)CC4)[C@@H](CC)C3)c(C)n2)o1` [Compound 8], under setting [1], the Ki was below 25 nM.

Consider `CCNc1nnc(-c2ccc(N3C[C@H](CC)N(C4CCN(Cc5ccc(Cl)cc5)CC4)C[C@H]3C)c(C)n2)o1` [Compound 2], for which the Ki was 0.4 nM under setting [2] and below 25 nM under setting [1].

Turning to `CC[C@H]1CN(c2ccc(-c3nnc(N)o3)nc2C)[C@H](C)CN1C1CCN(C(=O)c2ccc(Cl)c(F)c2)CC1` [Compound 13], the Ki under setting [1] was in the range of 25 to 100 nM.

On to `CCNc1nnc(-c2ccc(N3CCN(C4CCN(C(=O)c5ccc(Cl)cc5)CC4)[C@@H](CC)C3)c(C)n2)o1` [Compound 4], for which the Ki under setting [1] is below 25 nM.

On to `CC[C@H]1CN(c2ccc(-c3nnc(N)o3)nc2C)CCN1C1CCN(C(=O)c2ccc(Cl)c(F)c2)CC1` [Compound 7], for which the Ki under setting [1] is below 25 nM.

In the case of `CC[C@H]1CN(c2ccc(-c3nnc(N)o3)nc2C)CCN1C1CCN(C(=O)c2ccc(Cl)cc2)CC1` [Compound 15], the Ki runs as follows: under setting [2], 2.4 nM; under setting [1], below 25 nM.

Take `CC[C@H]1CN(c2ccc(-c3nnc(N)o3)nc2C)CCN1C1CCN(C(=O)c2ccc(F)c(F)c2)CC1` [Compound 9]: the Ki under setting [1] was below 25 nM.

With `CC[C@H]1CN(c2ccc(-c3nnc(N)o3)nc2C)CCN1C1CCN(Cc2ccc(OC(F)(F)F)cc2)CC1` [Compound 3], the inhibition constant Ki was 0.5 nM under setting [2] and below 25 nM under setting [1].

`CC[C@H]1CN(c2ccc(-c3nnc(N)o3)nc2C)[C@H](C)CN1C1CCN(C(=O)c2ccc(Cl)cc2)CC1` [Compound 12]: the Ki under setting [1] lay within 25 to 100 nM.

`CCNc1nnc(-c2ccc(N3C[C@H](CC)N(C4CCN(C(=O)c5ccc(Cl)c(F)c5)CC4)C[C@H]3C)c(C)n2)o1` [Compound 10]: under setting [1], the inhibitory constant (Ki) was 25 to 100 nM.

Regarding `CCNc1nnc(-c2ccc(N3CCN(C4CCN(C(=O)c5ccc(Cl)c(F)c5)CC4)[C@@H](CC)C3)c(C)n2)o1` [Compound 5], the inhibitory constant (Ki) under setting [1] was below 25 nM.

Turning to `CC[C@H]1CN(c2ccc(-c3nnc[nH]3)nc2C)CCN1C1CCN(C(=O)c2ccc(Cl)c(F)c2)CC1` [Compound 6], the inhibition constant Ki under setting [1] was below 25 nM.

As for `CCNc1nnc(-c2ccc(N3C[C@H](CC)N(C4CCN(C(=O)c5ccc(Cl)cc5)CC4)C[C@H]3C)c(C)n2)o1` [Compound 11], under setting [1], the Ki fell in the range of 25 to 100 nM.

With `CC[C@H]1CN(c2ccc(-c3nnc(N)o3)nc2C)CCN1C1CCN(Cc2ccc(Cl)cc2)CC1` [Compound 14], the inhibition constant (Ki) was 0.3 nM under setting [2] and below 25 nM under setting [1].
